# Source: paper PMC6378053, “Flavonol 7-O-Glucoside Herbacitrin Inhibits HIV-1 Replication through Simultaneous Integrase and Reverse Transcriptase Inhibition” (Evidence-based Complementary and Alternative Medicine : eCAM, 2019)
# Assays:
# [1] = test system: IN (strand transfer reaction); design: method as in PMID 12213478; details: in vitro; cited from earlier work
# HIV [2] = test system: HIV; design: method as in PMID 12213478; details: MT-2 cells; read-out: IC50 HIV infection of MT-2 cells; cited from earlier work
# MT-2 cells = details: at concentrations as high as 800 μM; cited from earlier work
# IN = details: cited from earlier work
# [3] = MTT cytotoxicity assay on MT-4 cells; details: human
# Procedure: (§1) The permanent human T-cell lines MT-4 and MT-2 were maintained at 37°C in a humidified atmosphere containing 5% CO2 in RPMI 1640 (Sigma-Aldrich) medium supplemented with 10% heat-inactivated fetal bovine serum (Sigma-Aldrich), 100 IU/ml penicillin and 100 μg/ml streptomycin (Sigma-Aldrich). HIV-1 (HTLV-IIIB) was obtained from the culture supernatant of MT-4/HTLV-IIIB cells. The 50% HIV-1 tissue culture infectious dose (TCID50) on MT-4 cells was determined by virus yield assay.
# (§2) To determine the in vitro cytotoxic effect of the compounds, viability of the treated and untreated cells was measured by a colorimetric assay as described earlier. Briefly, MT-4 and MT-2 cells were seeded into a 96-well plate at a density of 15,000 cells/well in the presence of different concentrations of the compounds dissolved in dimethyl sulfoxide (DMSO). […] After 4 days of incubation, cell cultures were analyzed using MTT cell viability assay (Sigma-Aldrich) to monitor the reduction of 3-(4,5-dimethylthiazol-2-yl)-2,5-diphenyl-tetrazolium bromide (MTT) to a blue formazan product by metabolically active cells. To initiate the cell viability assay, 20 μl MTT (5 mg/mL dissolved in PBS) was added to each well. After 4 h incubation cell supernatant was removed and 100 μl DMSO per well was added. The absorbance was measured at 550 nm on a microplate reader after mixing the contents thoroughly. The cytotoxicity tests were implemented in two biological replicates.
# [4] = MTT cytotoxicity assay on MT-2 cells; details: human
# Procedure: as §1, §2
# HIV-1 (HTLV-IIIB) = experiment: Cell-based antiviral assay, HIV-1 p24 core protein ELISA in supernatants of infected MT-4 and MT-2 cells; details: nontoxic concentrations (2.1 μM), 5 days of incubation
# Procedure: MT-4 and MT-2 cells at a density of 15,000 cells/well were incubated in 96-well plates in the presence of compounds at 37°C in 5% CO2 for 5 days. Simultaneously, cells were exposed to HIV-1 (2,32∗10^2 TCID50/ml). Untreated and infected or AZT (3′-azido-3′-deoxythymidine)-treated cells were used as controls. After the incubation period, diluted culture supernatants were analyzed for HIV production by determining the amount of viral core protein using a p24 enzyme-linked immunosorbent assay (ELISA) kit (Fujirebio) according to manufacturer's instructions. The results were expressed relative to the control of untreated HIV-1 infected cells. The experiment was performed in four biological replicates. Statistical analysis was performed by one-way ANOVA followed by Bonferroni's post hoc test.
# [5] = biological target: T1, recombinant HIV-1 reverse transcriptase (RT) (Human immunodeficiency virus type 1 group M subtype B, UniProt P04585); experiment: HIV-1 reverse transcriptase inhibition, colorimetric RT kit; type: biochemical; details: 21.5 μM concentration
# T1 construct: activity of recombinant HIV-1 reverse transcriptase (RT) and integrase (IN); purchased Roche Diagnostics
# Procedure: (§3) Inhibitory effects of compounds on the HIV-1 reverse transcriptase and integrase activity were measured by a colorimetric RT kit (Roche Diagnostics) and IN assay kit (Express Biotech International) according to the instructions of the manufacturer. Reverse transcriptase assay measures the amount of labeled nucleotides incorporated during the transcription process of RNA. Nevirapine, a nonnucleoside RT inhibitor, was used as a positive control in the RT reaction. HIV-1 integrase assay measures the integrase activity after 3′-end processing of the HIV-1 LTR donor substrate DNA and catalyzing the strand-transfer recombination reaction to integrate the donor substrate DNA into the target substrate DNA. Sodium azide was applied as a positive control compound in the experiments measuring the integrase activity. The RT and IN inhibition assays were performed in two biological replicates. Statistical analysis was performed by one-way ANOVA followed by Bonferroni's post hoc test, and a planned comparison by unpaired T-test was also performed (see Figure 3(b)).
# [6] = biological target: T2, recombinant HIV-1 integrase (IN) (Human immunodeficiency virus type 1 group M subtype B, UniProt P04585); experiment: HIV-1 integrase inhibition, IN assay kit; type: biochemical; details: 2.15 μM concentration
# T2 construct: activity of recombinant HIV-1 reverse transcriptase (RT) and integrase (IN); purchased Express Biotech International
# Procedure: as §3
# HIV-1 [7] = test system: HIV-1; design: method as in PMID 25546350; details: C8166 cells; cited from earlier work
# HIV-1 [8] = test system: HIV-1; design: method as in PMID 25546350; details: C8166 cells; cited from earlier work; remark: listed apart in the source
# HIV-1 BaL, HIV-1 MN = test system: HIV-1 BaL, HIV-1 MN; design: method as in PMID 25546350; details: TZM-bl cell plus HIV-1 BaL and H9, and PBMC plus HIV-1 MN; read-out: IC50 antiviral effect; cited from earlier work
# HIV [9] = test system: HIV; design: method as in doi:10.3844/ajidsp.2009.135.141; details: normal peripheral blood mononuclear cells (PBMC); cited from earlier work
structure (smiles),measurement,setting,value
O=c1cc(-c2ccc(O)c(O)c2)oc2cc(O[C@@H]3O[C@H](CO)[C@@H](O)[C@H](O)[C@H]3OS(=O)(=O)O)cc(O)c12 [Thalassiolin A],Inhibitory concentration against the strand transfer reaction,[1],submicromolar
same,IC50,HIV [2],~30 µM
same,Cytotoxicity,MT-2 cells,no cytotoxicity
"O=c1c(O)c(-c2ccc(O)c(O)c2)oc2cc(O)c(O)c(O)c12 [quercetagetin, quercetagetin (6-hydroxyquercetin)]",Inhibition of viral cleavage and integration,IN,strong inhibitor
"O=c1c(O)c(-c2ccc(O)c(O)c2)oc2c(O)c(OC3OC(CO)C(O)C(O)C3O)cc(O)c12 (stereo not drawn) [Gossypitrin (2), gossypitrin]",CC50 at 4 days,[3]; MT-4 cells,101 µM
same,CC50 at 4 days,[4]; MT-2 cells,113 µM
same,Effect on HIV-1 replication (p24 core protein levels),HIV-1 (HTLV-IIIB),ineffective
"O=c1c(O)c(-c2ccc(O)cc2)oc2c(O)c(OC3OC(CO)C(O)C(O)C3O)cc(O)c12 (stereo not drawn) [Herbacitrin (1), herbacitrin]",CC50 at 4 days,[3]; MT-4 cells,27.8 µM
same,CC50 at 4 days,[4]; MT-2 cells,63.6 µM
same,Effect on HIV-1 replication (p24 core protein levels),HIV-1 (HTLV-IIIB),reduced HIV-1 replication
same,Inhibition of HIV-1 reverse transcriptase activity,[5]; listed as Herbacitrin,inhibit
same,Inhibition of HIV-1 reverse transcriptase activity,[5]; listed as herbacitrin,significantly inhibited
same,Inhibition of HIV-1 integrase activity,[6]; listed as Herbacitrin,active
same,Inhibition of HIV-1 integrase activity,[6]; listed as herbacitrin,inhibited
"O=c1c(O)c(-c2ccc(O)c(O)c2)oc2cc(O)cc(O)c12 [Quercetin (3), quercetin]",CC50 at 4 days,[3],108 µM
same,CC50 at 4 days,[4],157 µM
same,Effect on HIV-1 replication (p24 core protein levels),HIV-1 (HTLV-IIIB),reduced HIV-1 replication
same,EC50 inhibition of syncytium formation,HIV-1 [7],42.55 µg/mL
same,EC50 protection of HIV-1 induced cytopathic effects,HIV-1 [8],23.2 µg/mL
same,IC50,"HIV-1 BaL, HIV-1 MN",29.8 to 89 µM
same,"Anti-HIV activity (HIV replication, virus infectivity)",HIV [9],significant anti-HIV activity
